In publication PMC9694130, “Design, Preparation, Characterization and Evaluation of Five Cocrystal Hydrates of Fluconazole with Hydroxybenzoic Acids” (Pharmaceutics, 2022):

Experiments:
[1] = cited from earlier work; for aqueous solubility of CCFs in water: water at 25 °C, no reference given
[2] = Apparent powder dissolution in ultrapure water; assay type: physicochemical; details: 37 °C, 100 rpm, rank among the three cocrystal hydrates
Experimental: Sampling was conducted by withdrawing 1 mL aliquot of the sample at time intervals of 5, 10, 15, 20, 30, 45, 60, 90, and 120 min from the vessel and filtered through a 0.45 μm syringe tip filter, and the aliquots were assayed on a high-performance liquid chromatography (HPLC) system. The measurements of the powder dissolution rate were repeated in triplicate.
(§1) The HPLC (Agilent Technologies, Santa Clara, USA) system was equipped with a UV detector and an Agilent Eclipse XDB−C18 (250 mm × 4.6 mm, 5 μm) column with the temperature set to 30 °C. The mobile phase consisted of acetonitrile and water (25:75, v:v) with a flow rate of 1.0 mL min^−1. The injection volume was 10 μL and the detection wavelength was set to 261 nm.

[3] = Intrinsic dissolution rate (IDR) in ultrapure water; assay type: physicochemical; details: 37 °C; for order of intrinsic dissolution rate: ultrapure water, 100 rpm, rank among the three cocrystal hydrates
Experimental: The resulting disk has a flat surface of 0.5 cm^2. Then, the disk was dipped into a vessel containing 900 mL ultrapure water at 37 ± 0.2 °C, with the paddle rotating at 100 rpm. At time intervals (60, 75, 90, 120, 150, 180, 210, 240, 270, and 300 min), 1 mL of the dissolution medium was withdrawn manually. After filtration through a 0.45 μm syringe tip filter, the aliquots were assayed on an HPLC system. Each experiment was repeated in triplicate.
as §1

[4] = Accelerated stability test (PXRD); assay type: physicochemical; details: for stability under high temperature: high temperature (60 ± 1 °C), phase changes reported after 5 days
Experimental: Approximately 50 mg of powdered samples were stored under the three test conditions and measured at regular time intervals (0, 5, and 10 days) by PXRD.

stability under high temperature ([4]; PXRD at 0, 5 and 10 days)	SMILES	order of apparent dissolution rate [2]	order of intrinsic dissolution rate [3]	aqueous solubility of CCFs in water [1]	also measured
–	OC(Cn1cncn1)(Cn1cncn1)c1ccc(F)cc1F [FLZ, 2-(2,4-difluorophenyl)-1,3-di(1H-1,2,4-triazol-1-yl)propan-2-ol, reference compound]	–	–	–	aqueous solubility ([1]; FLZ form II): 2 to 8 mg/mL
stable	O.O=C(O)c1ccc(O)c(O)c1.OC(Cn1cncn1)(Cn1cncn1)c1ccc(F)cc1F [FLZ−34DHB−H2O (1:1:1)]	FLZ−35DHB−H2O (1:1:1) > FLZ−34DHB−H2O (1:1:1) > FLZ−24DHB−H2O (1:0.5:1)	FLZ−35DHB−H2O (1:1:1) > FLZ−34DHB−H2O (1:1:1) > FLZ−24DHB−H2O (1:0.5:1)	–	hygroscopicity relative to FLZ ([4]; compared with commercialized FLZ form II): significantly reduces hygroscopicity; stability under high humidity ([4]; high humidity (90 ± 5%, 25 °C), PXRD at 0, 5 and 10 days): stable; stability under illumination ([4]; illumination (4500 ± 500 lx, 25 °C), PXRD at 0, 5 and 10 days): stable
forming an anhydrous form	O.O=C(O)c1cc(O)cc(O)c1.OC(Cn1cncn1)(Cn1cncn1)c1ccc(F)cc1F [FLZ−35DHB−H2O (1:1:1)]	FLZ−35DHB−H2O (1:1:1) > FLZ−34DHB−H2O (1:1:1) > FLZ−24DHB−H2O (1:0.5:1)	FLZ−35DHB−H2O (1:1:1) > FLZ−34DHB−H2O (1:1:1) > FLZ−24DHB−H2O (1:0.5:1)	–	IDR compared with FLZ form II ([3]; ultrapure water 900 mL, paddle 100 rpm, disk 0.5 cm^2): higher IDR
–	O=C(O)c1ccc(O)cc1O [24DHB, 2,4-dihydroxybenzoic acid]	–	–	8 mg/mL	–
converted to FLZ form II	O.OC(Cn1cncn1)(Cn1cncn1)c1ccc(F)cc1F [FLZ monohydrate, reference compound]	–	–	–	–
–	O=C(O)c1ccc(O)c(O)c1 [34DHB, 3,4-dihydroxybenzoic acid]	–	–	29 mg/mL	–
–	O=C(O)c1cc(O)cc(O)c1 [35DHB, 3,5-dihydroxybenzoic acid]	–	–	84 mg/mL	–

SMILES	stability under high temperature ([4]; PXRD at 0, 5 and 10 days)	order of apparent dissolution rate [2]	order of intrinsic dissolution rate [3]	aqueous solubility of CCFs in water [1]	also measured
O.O.O=C(O)c1ccc(O)cc1O.OC(Cn1cncn1)(Cn1cncn1)c1ccc(F)cc1F.OC(Cn1cncn1)(Cn1cncn1)c1ccc(F)cc1F [FLZ−24DHB−H2O (1:0.5:1)]	converted to the physical mixture of amorphous and crystalline phases	FLZ−35DHB−H2O (1:1:1) > FLZ−34DHB−H2O (1:1:1) > FLZ−24DHB−H2O (1:0.5:1)	FLZ−35DHB−H2O (1:1:1) > FLZ−34DHB−H2O (1:1:1) > FLZ−24DHB−H2O (1:0.5:1)	–	–
O.O.O=C(O)c1ccc(O)c(O)c1.OC(Cn1cncn1)(Cn1cncn1)c1ccc(F)cc1F.OC(Cn1cncn1)(Cn1cncn1)c1ccc(F)cc1F [FLZ−34DHB−H2O (1:0.5:1)]	converted to the physical mixture of amorphous and crystalline phases	–	–	–	–
